Measurements reported in ChEMBL document CHEMBL1649524, “Resistance selection studies comparing the activity of razupenem (PTZ601) to vancomycin and linezolid against eight methicillin-resistant and two methicillin-susceptible Staphylococcus aureus strains” (2009).
In brackets after ≈: the same amount, converted by molar mass.

How the values were obtained:
Assay type in all cases: functional
Staphylococcus aureus [1] = experiment: Antimicrobial activity against methicillin-resistant Staphylococcus aureus 525 measured on day 15 by macrodilution method; conditions: Staphylococcus aureus, 525, 360 h
Staphylococcus aureus [2] = experiment: Antimicrobial activity against vancomycin-intermediate Staphylococcus aureus 555 measured on day 30 by macrodilution method
Staphylococcus aureus [3] = experiment: Antimicrobial activity against vancomycin-resistant Staphylococcus aureus 510 measured on day 35 by macrodilution method
Staphylococcus aureus [4] = experiment: Antimicrobial activity against heterogeneous vancomycin-intermediate Staphylococcus aureus 873 measured on day 20 by macrodilution method; conditions: Staphylococcus aureus, 873, 480 h
Staphylococcus aureus [5] = experiment: Antimicrobial activity against methicillin-susceptible Staphylococcus aureus 540 measured on day 15 by macrodilution method; conditions: Staphylococcus aureus, 540, 360 h
Staphylococcus aureus [6] = experiment: Antimicrobial activity against methicillin-resistant Staphylococcus aureus 547 measured on day 35 by macrodilution method
Staphylococcus aureus [7] = experiment: Antimicrobial activity against methicillin-resistant Staphylococcus aureus 525 measured on day 45 by macrodilution method
Staphylococcus aureus [8] = experiment: Antimicrobial activity against methicillin-resistant Staphylococcus aureus 525 after 28 passages by macrodilution method
Staphylococcus aureus [9] = experiment: Antimicrobial activity against methicillin-susceptible Staphylococcus aureus 540 measured on day 30 by macrodilution method
Staphylococcus aureus [10] = experiment: Antimicrobial activity against methicillin-susceptible Staphylococcus aureus 543 measured on day 45 by macrodilution method
Staphylococcus aureus [11] = experiment: Antimicrobial activity against methicillin-resistant Staphylococcus aureus 525 measured on day 10 by macrodilution method; conditions: Staphylococcus aureus, 525, 240 h
Staphylococcus aureus [12] = experiment: Antimicrobial activity against vancomycin-intermediate Staphylococcus aureus 1287 measured after 10 antibiotic-free subculturing by macrodilution method
Staphylococcus aureus [13] = experiment: Antimicrobial activity against vancomycin-resistant Staphylococcus aureus 510 measured on day 25 by macrodilution method; conditions: Staphylococcus aureus, 510, 600 h
Staphylococcus aureus [14] = experiment: Antimicrobial activity against vancomycin-resistant Staphylococcus aureus 510 measured on day 5 by macrodilution method; conditions: Staphylococcus aureus, 510, 120 h
Staphylococcus aureus [15] = experiment: Antimicrobial activity against methicillin-resistant Staphylococcus aureus 525 measured on day 50 by macrodilution method
Staphylococcus aureus [16] = experiment: Antimicrobial activity against vancomycin-resistant Staphylococcus aureus 509 measured on day 30 by macrodilution method
Staphylococcus aureus [17] = experiment: Antimicrobial activity against methicillin-resistant Staphylococcus aureus 547 measured after 10 antibiotic-free subculturing by macrodilution method
Staphylococcus aureus [18] = experiment: Antimicrobial activity against methicillin-susceptible Staphylococcus aureus 543 measured on day 50 by macrodilution method
Staphylococcus aureus [19] = experiment: Antimicrobial activity against heterogeneous vancomycin-intermediate Staphylococcus aureus 168 measured on day 40 by macrodilution method
Staphylococcus aureus [20] = experiment: Antimicrobial activity against methicillin-resistant Staphylococcus aureus 525 measured after 10 antibiotic-free subculturing by macrodilution method
Staphylococcus aureus [21] = experiment: Antimicrobial activity against methicillin-resistant Staphylococcus aureus 525 measured on day 30 by macrodilution method
Staphylococcus aureus [22] = experiment: Antimicrobial activity against heterogeneous vancomycin-intermediate Staphylococcus aureus 873 measured on day 10 by macrodilution method; conditions: Staphylococcus aureus, 873, 240 h
Staphylococcus aureus [23] = experiment: Antimicrobial activity against vancomycin-resistant Staphylococcus aureus 509 measured on day 20 by macrodilution method; conditions: Staphylococcus aureus, 509, 480 h
Staphylococcus aureus [24] = experiment: Antimicrobial activity against vancomycin-intermediate Staphylococcus aureus 555 measured on day 10 by macrodilution method; conditions: Staphylococcus aureus, 555, 240 h
Staphylococcus aureus [25] = experiment: Antimicrobial activity against heterogeneous vancomycin-intermediate Staphylococcus aureus 168 after 50 passages by macrodilution method

Compound `C[C@H]1C=C(c2csc(SC3=C(C(=O)O)N4C(=O)[C@H]([C@@H](C)O)[C@H]4[C@H]3C)n2)CN1` [RAZUPENEM] has an MIC (Staphylococcus aureus [1]) of 4 µg/mL (≈ 9.82 µM), an MIC (Staphylococcus aureus [2]) of 8 µg/mL (≈ 19.6 µM) and an MIC (Staphylococcus aureus [3]) of 4 µg/mL (≈ 9.82 µM). For the same compound, the MIC (Staphylococcus aureus [4]) was 4 µg/mL (≈ 9.82 µM), the MIC (Staphylococcus aureus [5]) was 0.03 µg/mL (≈ 0.0736 µM) and the MIC (Staphylococcus aureus [6]) was 16 µg/mL (≈ 39.3 µM). It also gave an MIC (Staphylococcus aureus [7]) of 32 µg/mL (≈ 78.5 µM), an MIC (Staphylococcus aureus [8]) of 16 µg/mL (≈ 39.3 µM) and an MIC (Staphylococcus aureus [9]) of 4 µg/mL (≈ 9.82 µM). It also gave an MIC (Staphylococcus aureus [10]) of 0.06 µg/mL (≈ 0.147 µM), an MIC (Staphylococcus aureus [11]) of 4 µg/mL (≈ 9.82 µM) and an MIC (Staphylococcus aureus [12]) of 0.25 µg/mL (≈ 0.613 µM). For the same compound, the MIC (Staphylococcus aureus [13]) was 4 µg/mL (≈ 9.82 µM), the MIC (Staphylococcus aureus [14]) was 2 µg/mL (≈ 4.91 µM) and the MIC (Staphylococcus aureus [15]) was 32 µg/mL (≈ 78.5 µM). It also gave an MIC (Staphylococcus aureus [16]) of 4 µg/mL (≈ 9.82 µM), an MIC (Staphylococcus aureus [17]) of 0.125 µg/mL (≈ 0.307 µM) and an MIC (Staphylococcus aureus [18]) of 0.06 µg/mL (≈ 0.147 µM). For the same compound, the MIC (Staphylococcus aureus [19]) was 8 µg/mL (≈ 19.6 µM), the MIC (Staphylococcus aureus [20]) was 8 µg/mL (≈ 19.6 µM) and the MIC (Staphylococcus aureus [21]) was 8 µg/mL (≈ 19.6 µM). The MIC (Staphylococcus aureus [22]) was 2 µg/mL (≈ 4.91 µM), the MIC (Staphylococcus aureus [23]) was 4 µg/mL (≈ 9.82 µM) and the MIC (Staphylococcus aureus [24]) was 1 µg/mL (≈ 2.45 µM). For the same compound, the MIC (Staphylococcus aureus [25]) was 8 µg/mL (≈ 19.6 µM).
